Calls of active or inactive are those of the source. The rule behind the calls is not given here.
Columns and labels:
[1] = target: Casein kinase I isoform delta (Homo sapiens) (UniProt P48730); conditions: Compound concentration 100.0 nM
[2] = target: LIM domain kinase 1 (Homo sapiens, UniProt P53667); assay: Inhibition of LIMK1 at compound concentration of 10.0 uM using the ScanMax (DiscoverX)
[3] = target: Cyclin-dependent kinase 16 (Homo sapiens) (UniProt Q00536); conditions: Compound concentration 100.0 nM
Chain of Cyclin-dependent kinase 16 (Homo sapiens) (Q00536 whole entry): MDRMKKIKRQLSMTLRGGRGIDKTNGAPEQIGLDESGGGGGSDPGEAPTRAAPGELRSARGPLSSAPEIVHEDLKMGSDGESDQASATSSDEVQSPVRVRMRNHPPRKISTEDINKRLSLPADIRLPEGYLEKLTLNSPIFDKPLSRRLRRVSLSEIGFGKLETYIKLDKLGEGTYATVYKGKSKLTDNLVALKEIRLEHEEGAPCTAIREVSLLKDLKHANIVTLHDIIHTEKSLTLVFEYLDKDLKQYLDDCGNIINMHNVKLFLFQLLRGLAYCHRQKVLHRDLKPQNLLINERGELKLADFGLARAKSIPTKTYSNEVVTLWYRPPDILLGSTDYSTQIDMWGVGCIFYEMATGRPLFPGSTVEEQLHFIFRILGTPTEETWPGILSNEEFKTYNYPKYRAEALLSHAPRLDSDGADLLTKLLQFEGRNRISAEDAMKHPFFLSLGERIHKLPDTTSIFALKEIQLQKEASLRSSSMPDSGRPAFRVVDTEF

[4] = target: 5-hydroxytryptamine receptor 6 (Homo sapiens) (UniProt P50406); conditions: Compound concentration 10.0 uM
[5] = target: cAMP-dependent protein kinase catalytic subunit PRKX (Homo sapiens) (UniProt P51817); conditions: Compound concentration 100.0 nM
[6] = target: D(1B) dopamine receptor (Homo sapiens) (UniProt P21918); conditions: Compound concentration 10.0 uM
[7] = target: Activin receptor type-1B (Homo sapiens) (UniProt P36896); conditions: Compound concentration 100.0 nM
[8] = target: 5-hydroxytryptamine receptor 2B (Homo sapiens, UniProt P41595); assay: GPCRScan assay: inhibition of 5-HT2B; parameters: radioligand conc. used [nm] 1.0 – 2.0, parental cells stable HEK
[9] = target: Death-associated protein kinase 3 (Homo sapiens) (UniProt O43293); conditions: Compound concentration 100.0 nM
Chain of Death-associated protein kinase 3 (Homo sapiens) (O43293 whole entry, looked up): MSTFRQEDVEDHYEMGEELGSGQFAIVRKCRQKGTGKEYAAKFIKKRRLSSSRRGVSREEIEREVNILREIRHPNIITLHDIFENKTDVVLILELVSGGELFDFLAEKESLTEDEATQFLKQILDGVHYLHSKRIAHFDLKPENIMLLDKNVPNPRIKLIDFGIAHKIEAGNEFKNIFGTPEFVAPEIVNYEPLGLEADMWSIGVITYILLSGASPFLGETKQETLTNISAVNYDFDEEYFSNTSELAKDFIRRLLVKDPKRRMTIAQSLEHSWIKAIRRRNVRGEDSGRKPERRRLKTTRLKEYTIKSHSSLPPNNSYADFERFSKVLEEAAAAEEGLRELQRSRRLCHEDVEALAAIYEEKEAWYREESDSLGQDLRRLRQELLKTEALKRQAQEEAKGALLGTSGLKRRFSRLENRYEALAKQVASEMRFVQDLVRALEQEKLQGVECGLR

[10] = target: TGF-beta receptor type-2 (Homo sapiens) (UniProt P37173); conditions: Compound concentration 100.0 nM
[11] = GPCRScan assay: inhibition of GABA/PBR; parameters: species or system Rattus norvegicus; radioligand conc. used [nm] 0.3 – 2.0, parental cells brain tissue
[12] = target: D(4) dopamine receptor (Homo sapiens) (UniProt P21917); conditions: Compound concentration 10.0 uM
Chain of D(4) dopamine receptor (Homo sapiens) (P21917 whole entry): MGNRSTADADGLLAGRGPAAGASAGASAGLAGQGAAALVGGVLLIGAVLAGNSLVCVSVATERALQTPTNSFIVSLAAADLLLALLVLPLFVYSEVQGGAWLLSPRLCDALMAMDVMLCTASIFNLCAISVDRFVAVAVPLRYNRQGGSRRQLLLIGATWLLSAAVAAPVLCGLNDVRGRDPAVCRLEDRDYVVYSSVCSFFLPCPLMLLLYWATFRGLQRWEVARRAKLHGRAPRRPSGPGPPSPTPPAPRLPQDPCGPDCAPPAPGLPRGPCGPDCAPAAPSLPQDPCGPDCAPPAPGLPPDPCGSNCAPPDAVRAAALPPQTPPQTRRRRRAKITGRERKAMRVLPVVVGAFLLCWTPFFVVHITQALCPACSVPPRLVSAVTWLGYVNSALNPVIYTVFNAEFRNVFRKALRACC

[13] = target: Protein-tyrosine kinase 6 (Homo sapiens) (UniProt Q13882); conditions: Compound concentration 100.0 nM
[14] = target: Muscarinic acetylcholine receptor M1 (Homo sapiens) (UniProt P11229); conditions: Compound concentration 10.0 uM
[15] = target: Mitogen-activated protein kinase kinase kinase 12 (Homo sapiens) (UniProt Q12852); conditions: Compound concentration 100.0 nM
Chain of Mitogen-activated protein kinase kinase kinase 12 (Homo sapiens) (Q12852 whole entry): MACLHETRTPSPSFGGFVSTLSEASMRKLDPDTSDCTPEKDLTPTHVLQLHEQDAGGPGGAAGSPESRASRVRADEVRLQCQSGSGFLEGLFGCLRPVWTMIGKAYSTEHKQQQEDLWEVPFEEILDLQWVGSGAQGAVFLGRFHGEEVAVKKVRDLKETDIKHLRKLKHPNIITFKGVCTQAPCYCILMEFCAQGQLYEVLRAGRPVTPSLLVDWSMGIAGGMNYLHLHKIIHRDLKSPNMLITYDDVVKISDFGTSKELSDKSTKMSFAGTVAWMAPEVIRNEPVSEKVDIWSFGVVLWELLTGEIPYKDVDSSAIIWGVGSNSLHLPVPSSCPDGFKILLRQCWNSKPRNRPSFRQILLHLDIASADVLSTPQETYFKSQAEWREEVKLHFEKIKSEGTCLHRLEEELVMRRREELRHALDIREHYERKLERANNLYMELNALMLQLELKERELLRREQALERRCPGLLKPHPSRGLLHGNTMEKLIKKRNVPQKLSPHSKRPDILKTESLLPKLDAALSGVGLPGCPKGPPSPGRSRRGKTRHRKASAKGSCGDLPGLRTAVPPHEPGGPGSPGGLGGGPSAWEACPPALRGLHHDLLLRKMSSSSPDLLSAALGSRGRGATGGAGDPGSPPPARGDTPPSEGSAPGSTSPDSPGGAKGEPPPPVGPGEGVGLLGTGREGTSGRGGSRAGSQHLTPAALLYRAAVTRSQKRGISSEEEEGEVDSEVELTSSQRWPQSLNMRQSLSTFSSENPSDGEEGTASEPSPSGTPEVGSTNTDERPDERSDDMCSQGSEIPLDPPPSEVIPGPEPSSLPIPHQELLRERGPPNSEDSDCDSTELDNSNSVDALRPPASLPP

[16] = target: Serine/threonine-protein kinase/endoribonuclease IRE1 (Homo sapiens) (UniProt O75460); conditions: Compound concentration 100.0 nM
[17] = system: Phosphatidylinositol 4,5-bisphosphate 3-kinase catalytic subunit alpha isoform (Homo sapiens), P42336 [H1047L]; conditions: Compound concentration 100.0 nM
Chain of Phosphatidylinositol 4,5-bisphosphate 3-kinase catalytic subunit alpha isoform (Homo sapiens), P42336 [H1047L] (P42336 whole entry H1047L, canonical isoform): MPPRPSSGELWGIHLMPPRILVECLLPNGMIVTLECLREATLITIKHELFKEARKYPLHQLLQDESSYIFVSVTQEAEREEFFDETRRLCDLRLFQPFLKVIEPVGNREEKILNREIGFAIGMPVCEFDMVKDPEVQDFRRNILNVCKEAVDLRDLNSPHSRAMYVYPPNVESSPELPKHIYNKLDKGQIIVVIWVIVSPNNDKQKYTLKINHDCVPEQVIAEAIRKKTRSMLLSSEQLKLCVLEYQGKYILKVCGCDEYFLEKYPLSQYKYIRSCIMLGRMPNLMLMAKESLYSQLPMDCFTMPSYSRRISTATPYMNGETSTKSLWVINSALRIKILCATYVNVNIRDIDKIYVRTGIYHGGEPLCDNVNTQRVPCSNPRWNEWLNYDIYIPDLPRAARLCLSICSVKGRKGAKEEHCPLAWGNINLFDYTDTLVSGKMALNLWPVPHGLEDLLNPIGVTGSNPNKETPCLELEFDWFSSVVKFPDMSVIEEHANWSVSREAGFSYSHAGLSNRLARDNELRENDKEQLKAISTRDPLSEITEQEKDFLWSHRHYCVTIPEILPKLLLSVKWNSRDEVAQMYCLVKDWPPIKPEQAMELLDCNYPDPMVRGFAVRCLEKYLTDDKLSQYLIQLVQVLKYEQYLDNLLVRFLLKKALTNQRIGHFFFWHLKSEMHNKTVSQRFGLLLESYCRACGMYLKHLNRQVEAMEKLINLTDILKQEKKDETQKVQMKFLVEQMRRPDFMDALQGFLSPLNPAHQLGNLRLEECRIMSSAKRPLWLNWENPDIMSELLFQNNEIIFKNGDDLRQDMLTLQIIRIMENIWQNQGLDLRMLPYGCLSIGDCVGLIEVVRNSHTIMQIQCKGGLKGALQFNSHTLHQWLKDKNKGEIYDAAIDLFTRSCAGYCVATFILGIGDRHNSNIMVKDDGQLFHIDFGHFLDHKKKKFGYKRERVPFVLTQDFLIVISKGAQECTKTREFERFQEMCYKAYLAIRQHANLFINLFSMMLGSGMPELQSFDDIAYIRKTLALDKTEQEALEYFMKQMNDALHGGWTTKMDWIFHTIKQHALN

[18] = target: T1, Tyrosine-protein kinase Fer (Homo sapiens, UniProt P16591); conditions: Compound concentration 100.0 nM
[19] = target: Cyclin-dependent kinase 13 (Homo sapiens) (UniProt Q14004); conditions: Compound concentration 100.0 nM
Chain of Cyclin-dependent kinase 13 (Homo sapiens) (Q14004 whole entry, looked up): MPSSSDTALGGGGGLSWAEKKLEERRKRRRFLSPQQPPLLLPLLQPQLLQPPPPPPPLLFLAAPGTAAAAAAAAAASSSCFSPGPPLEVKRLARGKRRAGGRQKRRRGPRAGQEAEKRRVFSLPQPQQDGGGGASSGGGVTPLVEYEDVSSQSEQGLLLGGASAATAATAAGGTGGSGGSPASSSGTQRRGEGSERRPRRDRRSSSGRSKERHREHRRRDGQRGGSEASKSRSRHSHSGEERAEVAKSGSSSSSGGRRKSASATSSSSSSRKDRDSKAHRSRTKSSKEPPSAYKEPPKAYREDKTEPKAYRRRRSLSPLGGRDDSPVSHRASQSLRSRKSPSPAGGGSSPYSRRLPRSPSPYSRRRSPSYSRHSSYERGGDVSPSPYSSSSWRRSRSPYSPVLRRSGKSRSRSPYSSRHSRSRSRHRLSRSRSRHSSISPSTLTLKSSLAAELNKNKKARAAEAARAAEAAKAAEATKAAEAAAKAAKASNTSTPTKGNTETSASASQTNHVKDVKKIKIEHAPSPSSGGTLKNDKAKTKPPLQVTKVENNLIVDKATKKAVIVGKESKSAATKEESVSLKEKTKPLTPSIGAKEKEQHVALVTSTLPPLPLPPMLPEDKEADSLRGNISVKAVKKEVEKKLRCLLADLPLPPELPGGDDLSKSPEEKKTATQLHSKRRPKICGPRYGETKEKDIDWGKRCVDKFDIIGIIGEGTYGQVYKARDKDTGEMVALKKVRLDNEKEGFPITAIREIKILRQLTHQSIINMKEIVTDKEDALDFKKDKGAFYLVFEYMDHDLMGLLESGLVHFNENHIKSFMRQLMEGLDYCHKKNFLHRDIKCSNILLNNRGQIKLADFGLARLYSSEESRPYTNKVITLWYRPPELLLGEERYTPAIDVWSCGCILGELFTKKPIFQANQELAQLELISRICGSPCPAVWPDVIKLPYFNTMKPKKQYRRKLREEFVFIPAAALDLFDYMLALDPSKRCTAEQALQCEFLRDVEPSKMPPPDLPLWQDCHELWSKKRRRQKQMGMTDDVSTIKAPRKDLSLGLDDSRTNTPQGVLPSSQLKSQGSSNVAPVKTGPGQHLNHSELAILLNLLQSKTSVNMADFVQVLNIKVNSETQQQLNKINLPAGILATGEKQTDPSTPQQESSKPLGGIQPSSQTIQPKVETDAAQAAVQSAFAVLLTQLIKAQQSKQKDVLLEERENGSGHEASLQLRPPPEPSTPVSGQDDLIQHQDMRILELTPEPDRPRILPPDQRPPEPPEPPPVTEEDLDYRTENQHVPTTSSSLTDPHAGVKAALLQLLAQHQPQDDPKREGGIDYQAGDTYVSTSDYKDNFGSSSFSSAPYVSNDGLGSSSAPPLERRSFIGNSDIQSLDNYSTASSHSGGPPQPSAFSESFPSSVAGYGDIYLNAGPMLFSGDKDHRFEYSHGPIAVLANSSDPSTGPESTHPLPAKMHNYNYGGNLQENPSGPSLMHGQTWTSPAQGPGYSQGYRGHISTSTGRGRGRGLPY

[20] = target: Tyrosine-protein kinase ZAP-70 (Homo sapiens, UniProt P43403); assay: Invitrogen kinase assay (ZAP70)
[21] = target: Tyrosine-protein kinase JAK2 (Homo sapiens, UniProt O60674); assay: Invitrogen kinase assay (JAK2)
[22] = target: T1, Tyrosine-protein kinase Fer; assay: Invitrogen kinase assay (FER)
[23] = target: High affinity nerve growth factor receptor (Homo sapiens, UniProt P04629); assay: Invitrogen kinase assay (NTRK1)
[24] = target: Tyrosine-protein kinase SYK (Homo sapiens, UniProt P43405); assay: Inhibition of SYK at compound concentration of 10.0 uM using the ScanMax (DiscoverX)
[25] = target: Tyrosine-protein kinase Fyn (Homo sapiens, UniProt P06241); assay: Invitrogen kinase assay (FYN)
[26] = target: NT-3 growth factor receptor (Homo sapiens, UniProt Q16288); assay: Invitrogen kinase assay (NTRK3)
[27] = target: Proto-oncogene tyrosine-protein kinase Src (Homo sapiens, UniProt P12931); assay: Invitrogen kinase assay (SRC)
[28] = target: Tyrosine-protein kinase Fgr (Homo sapiens, UniProt P09769); assay: Invitrogen kinase assay (FGR)
[29] = target: 5-hydroxytryptamine receptor 1E (Homo sapiens) (UniProt P28566); conditions: Compound concentration 10.0 uM
[30] = target: Sodium-dependent noradrenaline transporter (Homo sapiens, UniProt P23975); assay: GPCRScan assay: inhibition of NET; parameters: radioligand conc. used [nm] 1.3 – 5.0, parental cells stable HEK

Compound	residual activity [1] [%]	residual activity [3] [%]	residual activity [5] [%]	inhibition [6] [%]	residual activity [7] [%]	residual activity [9] [%]	residual activity [10] [%]	inhibition [12] [%]	residual activity [13] [%]	residual activity [15] [%]	residual activity [16] [%]	residual activity [17] [%]	residual activity [18] [%]	residual activity [19] [%]	further results
Cc1ccc(-c2cnc([C@@]3(O)CC[C@H](C(=O)O)C(C)(C)C3)s2)cc1Nc1cccc(C(F)(F)F)n1 [MRL-SYKi-NC]	92.5	93	97.2	18.6	100	92.7	100	-9.54	100	99.3	68.6	94.8	95.4	45.7	Kd [2]: > 10 µM (not active); inhibition [4]: 6.66%; Ki [8]: 1.06 µM; Ki [11]: 0.774 µM; pKi [11]: 6.11; inhibition [14]: -6.43%
Cc1cc(Nc2nccc(C)n2)cc(-c2cnc([C@@]3(O)CC[C@H](C(=O)O)C(C)(C)C3)s2)c1 [MRL-SYKi]	100	100	100	8.85	92.7	100	49.5	-6.05	100	66.9	90.2	81.7	100	89.5	IC50 [20]: 0.024 µM (active); IC50 [21]: 0.242 µM (not active); IC50 [22]: 0.232 µM (not active); IC50 [23]: 0.105 µM (not active); Kd [24]: 0.0018 µM (active); IC50 [25]: 0.205 µM (not active); IC50 [26]: 0.12 µM (not active); IC50 [27]: 0.1 µM (not active); IC50 [28]: 0.185 µM (not active); inhibition [29]: 11.4%; Ki [30]: 7.71 µM
